In US5001121A, “Cephalosporin compounds and pharmaceutical compositions thereof” (Mochida Pharmaceutical Co., Ltd., priority 1985, dated 1991):
≈ marks a conversion by molar mass, not a printed value.

Experiments:
[1] = test system: Staphylococcus aureus Smith; assay: Antibacterial activity in vitro, agar plate dilution method (MIC); format: cell-based; conditions: Mueller Hinton agar, 10^6 cells/ml, 37° C., 20 hours
Method: (§1) Antibacterial activity in vitro was determined in accordance with the agar plate dilution method. A platinum loop each of test bacteria (10^6 cells/ml), cultured in Mueller Hinton broth, was inoculated on Mueller Hinton agar plates which contained test compounds at various concentrations. After cultivating at 37° C. for 20 hours, the minimum inhibitory concentration (MIC μg/ml) was determined.

[2] = test system: Klebsiella pneumoniae IFO3317; assay: as above; format: cell-based; conditions: Mueller Hinton agar, 10^6 cells/ml, 37° C., 20 hours
Method: as §1

[3] = test system: Pseudomonas aeruginosa IFO3445; assay: as above; format: cell-based; conditions: Mueller Hinton agar, 10^6 cells/ml, 37° C., 20 hours
Method: as §1

[4] = test system: Serratia marcescens IFO3759; assay: as above; format: cell-based; conditions: Mueller Hinton agar, 10^6 cells/ml, 37° C., 20 hours
Method: as §1

Escherichia coli 67 = assay: as above; format: cell-based; conditions: Mueller Hinton agar, 10^6 cells/ml, 37° C., 20 hours
Method: as §1

Serratia marcescens 274 = assay: Protection ability against systemic infection; format: in vivo, ICR mice; conditions: in Mus musculus, iv, 168 h, Table 2-b, i.p. infection, i.v. compound 1 hour later, survival at 1 week, read-out: ED50
Method: Protection ability against systemic infection was determined as follows. An aqueous suspension of test bacteria was intraperitoneally injected into 10 four week old ICR mice. One hour after the infection, test compounds were intravenously administered. The number of surviving mice was counted 1 week after injection to determine the dose at which 50% of the test animals were alive (ED50 :mg/kg).

LD50, Probit method = conditions: in vivo, iv
Method: Next, LD50 of representative examples of the compounds of the present invention is shown in Table 3 wherein LD50 was determined in accordance with the Probit method.

MIC [1] [µg/mL]	Structure (SMILES)	MIC [2] [µg/mL]	MIC [3] [µg/mL]	MIC [4] [µg/mL]	MIC (Escherichia coli 67) [µg/mL]	ED50 (Serratia marcescens 274) [mg/kg]	LD50 (LD50, Probit method) [mg/kg]
0.78 (≈ 1.01 µM)	Cc1cc(SCC2=C(C(=O)O)N3C(=O)[C@@H](NC(=O)/C(=N\OC(C)(C(=O)O)c4ccc(O)c(O)c4)c4csc(N)n4)[C@H]3SC2)n2nc(C(=O)O)nc2n1 (stereo partly drawn) [Compound 11, (6R,7R)-7-[2-(2-amino-4-thiazolyl)-2-[Z-[1-carboxy-1-(3,4-dihydroxyphenyl)ethyl]oxyimino]acetamido]-3-[(2-carboxy-5-methyl-s-triazolo[1,5-a]pyrimidin-7-yl)thiomethyl]-8-oxo-5-thia-1-azabicyclo[4.2.0]oct-2-ene-2-carboxylic acid]	< 0.05	0.78 (≈ 1.01 µM)	0.2 (≈ 0.259 µM)	< 0.05	–	–
0.78 (≈ 1.03 µM)	Cc1cc(SCC2=C(C(=O)O)N3C(=O)[C@@H](NC(=O)/C(=N\O[C@@H](C(=O)O)c4ccc(O)c(O)c4)c4csc(N)n4)[C@H]3SC2)n2nc(C(=O)O)nc2n1 [Compound 10, (6R,7R)-7-[2-(2-amino-4-thiazolyl)-2-[Z-[(R)-carboxy(3,4-dihydroxyphenyl)-methyl]oxyimino]acetamido]-3-[(2-carboxy-5-methyl-s-triazolo[1,5-a]pyrimidin-7-yl)thiomethyl]-8-oxo-5-thia-1-azabicyclo[4.2.0]oct-2-ene-2-carboxylic acid]	< 0.05	6.25 (≈ 8.25 µM)	0.1 (≈ 0.132 µM)	0.2 (≈ 0.264 µM)	28.6	–
3.13 (≈ 4.39 µM)	Cc1cc(SCC2=C(C(=O)O)N3C(=O)[C@@H](NC(=O)C(NC(=O)c4ccc(O)c(O)c4)c4csc(N)n4)[C@H]3SC2)n2nc(C(=O)O)nc2n1 (stereo partly drawn) [Compound 17, (6R,7R)-7-[2-(2-amino-4-thiazolyl)-2-(3,4-dihydroxybenzoylamino)acetamido]-3-[(2-carboxy-5-methyl-s-triazolo [1,5-a]pyrimidin-7-yl)thiomethyl]-8-oxo-5-thia-1-azabicyclo[4.2.0]oct-2-ene-2-carboxylic acid]	< 0.05	1.56 (≈ 2.19 µM)	< 0.05	< 0.05	–	–
–	CC(=O)Oc1ccc([C@@H](O/N=C(\C(=O)N[C@@H]2C(=O)N3C(C(=O)O)=C(CSc4cc(C)nc5nc(C(=O)O)nn45)CS[C@H]23)c2csc(N)n2)C(=O)O)cc1OC(C)=O [Compound 8, (6R,7R)-7-[2-(2-amino-4-thiazolyl)-2-[Z-[(R)-carboxy(3,4-diacetoxyphenyl)-methyl]oxyimino]acetamido]-3-[(2-carboxy-5-methyl-s-triazolo[l,5-a]pyrimidin-7-yl)thiomethyl]-8-oxo-5-thia-1-azabicyclo [4.2.0]oct-2-ene-2-carboxyl-acid]	< 0.05	3.13 (≈ 3.72 µM)	0.1 (≈ 0.119 µM)	0.2 (≈ 0.238 µM)	10.5	–
–	CC(=O)Oc1ccc([C@H](O/N=C(\C(=O)N[C@@H]2C(=O)N3C(C(=O)O)=C(CSc4cc(C)nc5nc(C(=O)O)nn45)CS[C@H]23)c2csc(N)n2)C(=O)O)cc1OC(C)=O [Compound 7, (6R,7R)-7-[2-(2-amino-4-thiazolyl)-2-[Z-[(S)-carboxy(3,4-diacetoxyphenyl)methyl]oxyimino]acetamido]-3-[(2-carboxy-5-methyl-s-triazolo-[1,5-a]pyrimidin-7-yl)thiomethyl]-8-oxo-5-thia-1-azabicyclo[4.2.0]oct-2-ene-2-carboxylic acid]	< 0.05	1.56 (≈ 1.85 µM)	0.1 (≈ 0.119 µM)	0.2 (≈ 0.238 µM)	–	–
0.78 (≈ 1.24 µM)	Nc1nc(/C(=N/OC(C(=O)O)c2ccc(O)c(O)c2)C(=O)N[C@@H]2C(=O)N3C(C(=O)[O-])=C(C[n+]4ccccc4)CS[C@H]23)cs1 (stereo partly drawn) [Compound 14, (6R,7R)-7-[2-(2-amino-4-thiazolyl)-2-[Z-[carboxy(3 4-dihydroxyphenyl)methyl]-oxyimino]acetamido]-3-(pyridiniummethyl)-8-oxo-5-thia-l-azabicyclo[4.2.0]oct-2-ene-2-carboxylate]	0.1 (≈ 0.16 µM)	1.56 (≈ 2.49 µM)	0.39 (≈ 0.622 µM)	0.39 (≈ 0.622 µM)	–	–
0.78 (≈ 1.01 µM)	Cc1cc(SCC2=C(C(=O)O)N3C(=O)[C@@H](NC(=O)/C(=N\OC(C(=O)O)c4cc(O)c(O)c(O)c4)c4csc(N)n4)[C@H]3SC2)n2nc(C(=O)O)nc2n1 (stereo partly drawn) [Compound 12, (6R,7R)-7-[2-(2-amino-4-thiazolyl)-2-[Z-[carboxy(3,4,5-trihydroxyphenyl)-methyl]oxyimino]acetamido]-3-[(2-carboxy-5-methyl-s-triazolo[l,5-a]pyrimidin-7-yl)thiomethyl]-8-oxo-5-thia-l-azabicyclo [4 2.0]oct-2-ene-2-carboxylic acid]	< 0.05	6.25 (≈ 8.08 µM)	–	1.1 (≈ 1.42 µM)	–	–

Structure (SMILES)	MIC [1] [µg/mL]	MIC [2] [µg/mL]	MIC [3] [µg/mL]	MIC [4] [µg/mL]	MIC (Escherichia coli 67) [µg/mL]	ED50 (Serratia marcescens 274) [mg/kg]	LD50 (LD50, Probit method) [mg/kg]
Cc1cc(SCC2=C(C(=O)O)N3C(=O)[C@@H](NC(=O)/C(=N\OC(C)(C)C(=O)c4ccc(O)c(O)c4)c4csc(N)n4)[C@H]3SC2)n2nc(C(=O)O)nc2n1 [Compound 6, (6R,7R)-7-[2-(2-amino-4-thiazolyl)-2-[Z-[1-(3,4-dihydroxybenzoyl)-1-methylethyl]oxyimino]acetamido]-3-[(2-carboxy-5-methyl-s-triazolo-[1,5-a]pyrimidin-7-yl)thiomethyl]-8-oxo-5-thia-1-azabicyclo[4.2.0]oct-2-ene-2-carboxylicacid]	6.25 (≈ 8.12 µM)	< 0.05	0.78 (≈ 1.01 µM)	< 0.05	< 0.05	–	> 1000
Nc1nc(/C(=N/O[C@H](C(=O)O)c2ccc(O)c(O)c2)C(=O)N[C@@H]2C(=O)N3C(C(=O)[O-])=C(C[n+]4cccc5c4CCC5)CS[C@H]23)cs1 [Compound 16, (6R,7R)-7-[2-(2-amino-4-thiazolyl)-2-[Z-[(S)-carboxy(3,4-dihydroxyphenyl)methyl]oxyimino]acetamido]-3-(2,3-cyclopentenopyridiniummethyl)-8-oxo-5-thia-1-azabicyclo [4.2.0]oct-2-ene-2-carboxylate]	0.78 (≈ 1.17 µM)	< 0.05	0.39 (≈ 0.585 µM)	0.1 (≈ 0.15 µM)	0.1 (≈ 0.15 µM)	–	> 1000
Cc1cc(SCC2=C(C(=O)O)N3C(=O)[C@@H](NC(=O)/C(=N\OC(=O)c4cc(O)c(O)c(O)c4)c4csc(N)n4)[C@H]3SC2)n2nc(C(=O)O)nc2n1 [Compound 1, (6R,7R)-7-[2-(2-amino-4-thiazolyl)-2-[Z-(3,4,5-trihydroxybenzoyl)oxyimino]acetamido]-3-[(2-carboxy-5-methyl-s-triazolo[l,5-a]-pyrimidin-7-yl)thiomethyl]-8-oxo-5-thia-l-azabicyclo [4.2.0]oct-2-ene-2-carboxylic acid]	0.78 (≈ 1.05 µM)	< 0.05	3.13 (≈ 4.21 µM)	< 0.05	< 0.05	–	> 1000
CC(=O)Oc1cc(C(=O)O)c(CO/N=C(\C(=O)N[C@@H]2C(=O)N3C(C(=O)O)=C(CSc4cc(C)nc5nc(C(=O)O)nn45)CS[C@H]23)c2csc(N)n2)cc1O [Compound 5, (6R,7R)-7-[2-(2-amino-4-thiazolyl)-2-[Z-[(4-acetoxy-2-carboxy-5-hydroxyphenyl)-methyl]oxyimino]acetamido]-3-[(2-carboxy-5-methyl-s-triazolo-[1,5-a]pyrimidin-7-yl)thiomethyl]-8-oxo-5-thia-1-azabicyclo[4.2.0]oct-2-ene-2-carboxylic acid]	1.56 (≈ 1.95 µM)	< 0.05	0.2 (≈ 0.25 µM)	< 0.05	< 0.05	–	–
